Assay results taken from patent US20260070945A1, “MACROCYCLIC IMMUNOMODULATORS” (Bristol-Myers Squibb Company, priority 2022, published 2026).
Where a SMILES comes first, the peptide text is derived from it. Bridges are numbered along the chain shown (N, C = ends). [ ]: non-standard residue; d: D form. The star is where a group is joined. ξ: configuration not given here. Phe(4-COOH) = N[C@@H](Cc1ccc(C(=O)O)cc1)C(=O)O; Bip = N[C@@H](Cc1ccc(-c2ccccc2)cc1)C(=O)O; Phe(3-Me) = Cc1cccc(C[C@H](N)C(=O)O)c1; Cha = N[C@@H](CC1CCCCC1)C(=O)O; Cit = NC(=O)NCCC[C@H](N)C(=O)O; Thr(3ξ) = CC(O)[C@H](N)C(=O)O; hSer = N[C@@H](CCO)C(=O)O; Carboxymethyl = O=C(O)C*; NMeA = CN[C@@H](C)C(=O)O; Aun = NCCCCCCCCCCC(=O)O; Dab = NCC[C@H](N)C(=O)O; AEEA = NCCOCCOCC(=O)O

Target: T1, PD-1/PD-L1 interaction (PE-labeled human PD-L1-Ig binding to Jurkat cell line over-expressing human PD-1) (Homo sapiens, UniProt Q15116)
T1 construct: expressed in transfected cells; host or cells: Jurkat
Experiment: Jurkat-PD-1 Cell Binding High-Content Screening Assay (CBA)
Settings: Jurkat-hPD-1 cells, PE-labeled PD-L1-Ig 20 nM final; read-out: Jurkat HPD1 PDL1 IC50
Summary of the method: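 Cells 8×10^3/well, DMEM + 10% FCS; cpd 2 h, 37 °C; PE–PD-L1-Ig 20 nM final, 1 h; PFA fix + Hoechst 33342, 3× dPBS wash; high-content imager.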

T1 sequence (Q15116 25-288): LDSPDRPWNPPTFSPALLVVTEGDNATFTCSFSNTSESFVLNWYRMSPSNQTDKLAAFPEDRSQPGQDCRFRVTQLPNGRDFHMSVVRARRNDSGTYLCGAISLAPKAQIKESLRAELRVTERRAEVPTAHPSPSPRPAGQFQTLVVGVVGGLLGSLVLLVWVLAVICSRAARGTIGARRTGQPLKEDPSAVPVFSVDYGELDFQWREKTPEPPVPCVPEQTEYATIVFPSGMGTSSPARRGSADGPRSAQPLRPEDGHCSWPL

Compound | IC50 [nM]
Cc1cccc(C[C@@H]2NC(=O)[C@H](CC(=O)O)NC(=O)[C@H](Cc3ccc(OCC(=O)O)cc3)NC(=O)[C@H](CCCNC(=N)N)NC(=O)CSC[C@@H](C(=O)N[C@@H](CCN)C(=O)NCCCCCCCCCCC(=O)O)NC(=O)[C@H](C(C)O)NC(=O)[C@H](C(C)C)NC(=O)[C@H](CC3CCCCC3)NC(=O)[C@H](CCN)NC(=O)[C@@H](CC(C)C)NC(=O)[C@H](C)N(C)C(=O)[C@H](Cc3ccc(OCC(=O)O)cc3)NC(=O)[C@H](Cc3ccc(-c4ccccc4)cc3)NC(=O)[C@H](Cc3ccc(OCC(=O)O)cc3)NC2=O)c1 (stereo partly drawn) [Example 2307] ({CH2CO}-RY(Carboxymethyl)D[Phe(3-Me)]Y(Carboxymethyl)[Bip]Y(Carboxymethyl)[NMeA][dL][Dab][Cha]V[Thr(3ξ)]C[Dab][Aun]-OH; thioether N-14) | 13.8
Cc1cccc(C[C@@H]2NC(=O)[C@H](CC(=O)O)NC(=O)[C@H](Cc3ccc(OCC(=O)O)cc3)NC(=O)[C@H](C(C)O)NC(=O)CSC[C@@H](C(=O)N[C@@H](CCN)C(=O)NCCCCCCCCCCC(=O)O)NC(=O)[C@H](C(C)O)NC(=O)[C@H](C(C)C)NC(=O)[C@H](CC3CCCCC3)NC(=O)[C@H](CCN)NC(=O)[C@@H](CC(C)C)NC(=O)[C@H](C)N(C)C(=O)[C@H](Cc3ccc(OCC(=O)O)cc3)NC(=O)[C@H](Cc3ccc(-c4ccccc4)cc3)NC(=O)[C@H](C(C)C)NC2=O)c1 (stereo partly drawn) [Example 2309] ({CH2CO}-[Thr(3ξ)]Y(Carboxymethyl)D[Phe(3-Me)]V[Bip]Y(Carboxymethyl)[NMeA][dL][Dab][Cha]V[Thr(3ξ)]C[Dab][Aun]-OH; thioether N-14) | 27.9
Cc1cccc(C[C@@H]2NC(=O)[C@H](CC(=O)O)NC(=O)[C@H](Cc3ccc(OCC(=O)O)cc3)NC(=O)[C@H](C(C)O)NC(=O)CSC[C@@H](C(=O)N[C@@H](CCN)C(=O)NCCCCCCCCCCC(=O)O)NC(=O)[C@H](C(C)O)NC(=O)[C@H](C(C)C)NC(=O)[C@H](CC3CCCCC3)NC(=O)[C@H](CCN)NC(=O)[C@@H](CC(C)C)NC(=O)[C@H](C)N(C)C(=O)[C@H](Cc3ccc(OCC(=O)O)cc3)NC(=O)[C@H](Cc3ccc(-c4ccccc4)cc3)NC(=O)[C@H](Cc3ccc(OCC(=O)O)cc3)NC2=O)c1 (stereo partly drawn) [Example 2310] ({CH2CO}-[Thr(3ξ)]Y(Carboxymethyl)D[Phe(3-Me)]Y(Carboxymethyl)[Bip]Y(Carboxymethyl)[NMeA][dL][Dab][Cha]V[Thr(3ξ)]C[Dab][Aun]-OH; thioether N-14) | 12.1
Cc1cccc(C[C@@H]2NC(=O)[C@H](CC(=O)O)NC(=O)[C@H](Cc3ccc(OCC(=O)O)cc3)NC(=O)[C@H](C(C)O)NC(=O)CSC[C@@H](C(=O)N[C@@H](CCN)C(=O)NCCCCCCCCCCC(=O)O)NC(=O)[C@H](C(C)O)NC(=O)[C@H](C(C)C)NC(=O)[C@H](CC3CCCCC3)NC(=O)[C@H](CCN)NC(=O)[C@@H](CC(C)C)NC(=O)[C@H](C)N(C)C(=O)[C@H](Cc3ccc(C(=O)O)cc3)NC(=O)[C@H](Cc3ccc(-c4ccccc4)cc3)NC(=O)[C@H](Cc3ccc(C(=O)O)cc3)NC2=O)c1 (stereo partly drawn) [Example 2311] ({CH2CO}-[Thr(3ξ)]Y(Carboxymethyl)D[Phe(3-Me)][Phe(4-COOH)][Bip][Phe(4-COOH)][NMeA][dL][Dab][Cha]V[Thr(3ξ)]C[Dab][Aun]-OH; thioether N-14) | 21.3
Cc1cccc(C[C@@H]2NC(=O)[C@H](CC(=O)O)NC(=O)[C@H](Cc3ccc(OCC(=O)O)cc3)NC(=O)[C@H](CCCNC(=N)N)NC(=O)CSC[C@@H](C(=O)N[C@H](CC(N)=O)C(=O)NCCCCCCCCCCC(=O)O)NC(=O)[C@H](C(C)O)NC(=O)[C@H](C(C)C)NC(=O)[C@H](CC3CCCCC3)NC(=O)[C@H](CCN)NC(=O)[C@@H](CC(C)C)NC(=O)[C@H](C)N(C)C(=O)[C@H](CCCNC(N)=O)NC(=O)[C@H](Cc3ccc(-c4ccccc4)cc3)NC(=O)[C@H](C(C)C)NC2=O)c1 (stereo partly drawn) [Example 2312] ({CH2CO}-RY(Carboxymethyl)D[Phe(3-Me)]V[Bip][Cit][NMeA][dL][Dab][Cha]V[Thr(3ξ)]C[dN][Aun]-OH; thioether N-14) | 8.7
Cc1cccc(C[C@@H]2NC(=O)[C@H](CC(=O)O)NC(=O)[C@H](Cc3ccc(OCC(=O)O)cc3)NC(=O)[C@H](C(C)O)NC(=O)CSC[C@@H](C(=O)N[C@H](CC(N)=O)C(=O)NCCCCCCCCCCC(=O)O)NC(=O)[C@H](C(C)O)NC(=O)[C@H](C(C)C)NC(=O)[C@H](CC3CCCCC3)NC(=O)[C@H](CCN)NC(=O)[C@@H](CC(C)C)NC(=O)[C@H](C)N(C)C(=O)[C@H](CCCNC(N)=O)NC(=O)[C@H](Cc3ccc(-c4ccccc4)cc3)NC(=O)[C@H](C(C)C)NC2=O)c1 (stereo partly drawn) [Example 2313] ({CH2CO}-[Thr(3ξ)]Y(Carboxymethyl)D[Phe(3-Me)]V[Bip][Cit][NMeA][dL][Dab][Cha]V[Thr(3ξ)]C[dN][Aun]-OH; thioether N-14) | 10.1
Cc1cccc(C[C@@H]2NC(=O)[C@H](CC(=O)O)NC(=O)[C@H](Cc3ccc(OCC(=O)O)cc3)NC(=O)[C@H](C(C)O)NC(=O)CSC[C@@H](C(=O)N[C@H](CC(N)=O)C(=O)NCCCCCCCCCCC(=O)O)NC(=O)[C@H](C(C)O)NC(=O)[C@H](C(C)C)NC(=O)[C@H](CC3CCCCC3)NC(=O)[C@H](CCN)NC(=O)[C@@H](CC(C)C)NC(=O)[C@H](C)N(C)C(=O)[C@H](Cc3ccc(O)cc3)NC(=O)[C@H](Cc3ccc(-c4ccccc4)cc3)NC(=O)[C@H](Cc3ccc(O)cc3)NC2=O)c1 (stereo partly drawn) [Example 2314] ({CH2CO}-[Thr(3ξ)]Y(Carboxymethyl)D[Phe(3-Me)]Y[Bip]Y[NMeA][dL][Dab][Cha]V[Thr(3ξ)]C[dN][Aun]-OH; thioether N-14) | 21.7

Now from value to compound:

IC50 [nM] | Compound
14.3 | Cc1cccc(C[C@@H]2NC(=O)[C@H](CC(=O)O)NC(=O)[C@H](Cc3ccc(OCC(=O)O)cc3)NC(=O)[C@H](CCCNC(=N)N)NC(=O)CSC[C@@H](C(=O)N[C@@H](CCN)C(=O)NCCCCCCCCCCC(=O)O)NC(=O)[C@H](C(C)O)NC(=O)[C@H](C(C)C)NC(=O)[C@H](CC3CCCCC3)NC(=O)[C@H](CCN)NC(=O)[C@@H](CC(C)C)NC(=O)[C@H](C)N(C)C(=O)[C@H](Cc3ccc(OCC(=O)O)cc3)NC(=O)[C@H](Cc3ccc(-c4ccccc4)cc3)NC(=O)[C@H](CCC(=O)O)NC2=O)c1 (stereo partly drawn) [Example 2306] ({CH2CO}-RY(Carboxymethyl)D[Phe(3-Me)]E[Bip]Y(Carboxymethyl)[NMeA][dL][Dab][Cha]V[Thr(3ξ)]C[Dab][Aun]-OH; thioether N-14)
21.1 | Cc1cccc(C[C@@H]2NC(=O)[C@H](CC(=O)O)NC(=O)[C@H](Cc3ccc(OCC(=O)O)cc3)NC(=O)[C@H](CCCNC(=N)N)NC(=O)CSC[C@@H](C(=O)N[C@@H](CCN)C(=O)NCCCCCCCCCCC(=O)O)NC(=O)[C@H](C(C)O)NC(=O)[C@H](C(C)C)NC(=O)[C@H](CC3CCCCC3)NC(=O)[C@H](CCN)NC(=O)[C@@H](CC(C)C)NC(=O)[C@H](C)N(C)C(=O)[C@H](Cc3ccc(OCC(=O)O)cc3)NC(=O)[C@H](Cc3ccc(-c4ccccc4)cc3)NC(=O)[C@H](C(C)C)NC2=O)c1 (stereo partly drawn) [Example 2308] ({CH2CO}-RY(Carboxymethyl)D[Phe(3-Me)]V[Bip]Y(Carboxymethyl)[NMeA][dL][Dab][Cha]V[Thr(3ξ)]C[Dab][Aun]-OH; thioether N-14)
9.7 | Cc1cccc(C[C@@H]2NC(=O)[C@H](CC(=O)O)NC(=O)[C@H](Cc3ccc(OCC(=O)O)cc3)NC(=O)[C@H](C(C)O)NC(=O)CSC[C@@H](C(=O)N[C@H](CC(N)=O)C(=O)NCCCCCCCCCCC(=O)O)NC(=O)[C@H](C(C)O)NC(=O)[C@H](C(C)C)NC(=O)[C@H](CC3CCCCC3)NC(=O)[C@H](CCN)NC(=O)[C@@H](CC(C)C)NC(=O)[C@H](C)N(C)C(=O)[C@H](CCCNC(N)=O)NC(=O)[C@H](Cc3ccc(-c4ccccc4)cc3)NC(=O)[C@H](Cc3ccccc3)NC2=O)c1 (stereo partly drawn) [Example 2315] ({CH2CO}-[Thr(3ξ)]Y(Carboxymethyl)D[Phe(3-Me)]F[Bip][Cit][NMeA][dL][Dab][Cha]V[Thr(3ξ)]C[dN][Aun]-OH; thioether N-14)
11.3 | CC(=O)NCCCC[C@@H]1NC(=O)[C@H](Cc2ccc(-c3ccccc3)cc2)NC(=O)[C@H](C(C)C)NC(=O)[C@H](Cc2c[nH]c3ccccc23)NC(=O)[C@H](CC(=O)O)NC(=O)[C@H](Cc2ccc(OCC(=O)O)cc2)NC(=O)[C@H](Cc2ccc(OCC(=O)O)cc2)NC(=O)CSC[C@@H](C(=O)NCCOCCOCC(=O)NCCCCCCCCCCC(=O)O)NC(=O)[C@H](CCO)NC(=O)[C@H](C(C)C)NC(=O)[C@H](CC2CCCCC2)NC(=O)[C@H](CCN)NC(=O)[C@@H](CC(C)C)NC(=O)[C@H](C)N(C)C1=O [Example 2316] ({CH2CO}-Y(Carboxymethyl)Y(Carboxymethyl)DWV[Bip]K(Ac)[NMeA][dL][Dab][Cha]V[hSer]C[AEEA][Aun]-OH; thioether N-14)
8.9 | Cc1cccc(C[C@@H]2NC(=O)[C@H](CC(=O)O)NC(=O)[C@H](Cc3ccc(C(=O)O)cc3)NC(=O)[C@H](Cc3ccc(OCC(=O)O)cc3)NC(=O)CSC[C@@H](C(=O)NCCOCCOCC(=O)NCCCCCCCCCCC(=O)O)NC(=O)[C@H](CCO)NC(=O)[C@H](C(C)C)NC(=O)[C@H](CC3CCCCC3)NC(=O)[C@H](CCN)NC(=O)[C@@H](CC(C)C)NC(=O)[C@H](C)N(C)C(=O)[C@H](CCCNC(N)=O)NC(=O)[C@H](Cc3ccc(-c4ccccc4)cc3)NC(=O)[C@H](C(C)C)NC2=O)c1 [Example 2317] ({CH2CO}-Y(Carboxymethyl)[Phe(4-COOH)]D[Phe(3-Me)]V[Bip][Cit][NMeA][dL][Dab][Cha]V[hSer]C[AEEA][Aun]-OH; thioether N-14)
7.8 | Cc1cccc(C[C@@H]2NC(=O)[C@H](CC(=O)O)NC(=O)[C@H](Cc3ccc(OCC(=O)O)cc3)NC(=O)[C@H](CCCNC(=N)N)NC(=O)CSC[C@@H](C(=O)NCCOCCOCC(=O)NCCCCCCCCCCC(=O)O)NC(=O)[C@H](C(C)O)NC(=O)[C@H](C(C)C)NC(=O)[C@H](CC3CCCCC3)NC(=O)[C@H](CCN)NC(=O)[C@@H](CC(C)C)NC(=O)[C@H](C)N(C)C(=O)[C@H](CCCNC(N)=O)NC(=O)[C@H](Cc3ccc(-c4ccccc4)cc3)NC(=O)[C@H](C(C)C)NC2=O)c1 (stereo partly drawn) [Example 2318] ({CH2CO}-RY(Carboxymethyl)D[Phe(3-Me)]V[Bip][Cit][NMeA][dL][Dab][Cha]V[Thr(3ξ)]C[AEEA][Aun]-OH; thioether N-14)
